pIC50: −log10 of the molar value.

Data on 26 molecules can be found in US11098056B2, “UDP glycosyltransferase inhibitors and methods of use” (GENZYME CORPORATION, priority 2018, dated 2021).

For this assay, the target named is T1, UGT8 (Homo sapiens, UniProt Q16880).
T1 construct: host or cells: OE19 cells
T1 sequence (Q16880 21-541): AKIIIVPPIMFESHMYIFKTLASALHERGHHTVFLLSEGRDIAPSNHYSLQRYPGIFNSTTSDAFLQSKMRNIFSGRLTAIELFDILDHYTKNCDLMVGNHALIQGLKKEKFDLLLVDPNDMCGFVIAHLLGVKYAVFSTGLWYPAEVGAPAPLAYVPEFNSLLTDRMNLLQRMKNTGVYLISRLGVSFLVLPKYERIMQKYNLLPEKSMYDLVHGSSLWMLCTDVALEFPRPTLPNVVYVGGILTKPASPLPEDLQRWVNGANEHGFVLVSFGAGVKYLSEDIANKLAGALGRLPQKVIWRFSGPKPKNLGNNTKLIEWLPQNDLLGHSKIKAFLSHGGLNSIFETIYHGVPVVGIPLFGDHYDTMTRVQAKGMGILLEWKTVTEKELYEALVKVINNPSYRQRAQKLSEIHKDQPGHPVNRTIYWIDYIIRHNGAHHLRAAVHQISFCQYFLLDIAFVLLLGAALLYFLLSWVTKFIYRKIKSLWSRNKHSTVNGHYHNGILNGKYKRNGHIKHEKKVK
In words: In vitro sulfatide (SFT) synthesis inhibition in OE19 cells, LC-MS/MS readout. The settings on record: 72 hr, sulfatide by LC-MS/MS; for pIC50: read-out: Potency range (IC50, In-vitro SFT). The format is cell-based. The essentials:
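OE19 cells, 2,500/well, exposed to compound dose-downs in triplicate for 72 hr at 37° C (screening at 10 μM final). Sulfatide quantified by LC-MS/MS (C8 UPLC, isocratic, negative-ion MRM) with C17 SFT internal standard; IC50 from concentration-response curves.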

By pIC50 is commonly meant the negative decadic logarithm of the IC50, by convention in mol/L. `CNC(=O)c1csc2c(C(F)(F)F)c(F)c(N3CCC(OC(=O)N[C@@H](C)C4CC4)CC3)nc12` [Example 639, [1-[6-Fluoro-3-(methylcarbamoyl)-7-(trifluoromethyl)thieno[3,2-b]pyridin-5-yl]-4-piperidyl] N-[(1S)-1-cyclopropylethyl]carbamate]: the pIC50 is greater than 7.00.
Turning to `CNC(=O)c1csc2c(C)cc(N3CCN(CC(=O)NC(C)C)CC3)nc12` [Example 48, 5-(4-(2-(Isopropylamino)-2-oxoethyl)piperazin-1-yl)-N,7-dimethylthieno[3,2-b]pyridine-3-carboxamide], the negative-log IC50 (pIC50) is 6.00 to 7.00.
Turning to `CC(C)NC(=O)c1csc2c(C(F)(F)F)cc(N3CCC(NC4CCC(C(F)(F)F)CC4)C3)nc12` (centres unmarked) [Example 419, N-Isopropyl-7-(trifluoromethyl)-5-(3-((4-(trifluoromethyl)cyclohexyl)amino)pyrrolidin-1-yl)thieno[3,2-b]pyridine-3-carboxamide], the negative-log IC50 (pIC50) is less than 6.00.
On to `CNC(=O)c1csc2c(Cl)cc(N3CCC(OC(=O)NCC4CC4)CC3)nc12` [Example 449, 1-(7-Chloro-3-(methylcarbamoyl)thieno[3,2-b]pyridin-5-yl)piperidin-4-yl (cyclopropylmethyl)carbamate], for which the pIC50 was greater than 7.00.
Still for that read-out and setting: with `COC(=O)c1csc2c(C(F)(F)F)cc(C3CCN(C(=O)OC(C)(C)C)CC3)nc12` [Example 274, Methyl 5-(1-(tert-butoxycarbonyl)piperidin-4-yl)-7-(trifluoromethyl)thieno[3,2-b]pyridine-3-carboxylate] the figure was 6.00 to 7.00; with `CNC(=O)c1csc2c(C(F)(F)F)c(C)c(O[C@@H]3CCN(C(=O)OCCOC(F)(F)F)C[C@@H]3F)nc12` [Example 180, 2-(Trifluoromethoxy)ethyl (3S,4R)-3-fluoro-4-((6-methyl-3-(methylcarbamoyl)-7-(trifluoromethyl)thieno[3,2-b]pyridin-5-yl)oxy)piperidine-1-carboxylate], greater than 7.00.
For `CNC(=O)c1c(C)sc2c(C(F)(F)F)cc(N3CCN(CC(=O)NC(C)C)CC3)nc12` [Example 408, 5-(4-(2-(Isopropylamino)-2-oxoethyl)piperazin-1-yl)-N,2-dimethyl-7-(trifluoromethyl)thieno[3,2-b]pyridine-3-carboxamide], the pIC50 is 6.00 to 7.00.
Consider `CNC(=O)c1csc2c(C(F)(F)F)cc(N3CCC(OC(=O)N4CCC4)CC3)nc12` [Example 60, 1-(3-(Methylcarbamoyl)-7-(trifluoromethyl)thieno[3,2-b]pyridin-5-yl)piperidin-4-yl azetidine-1-carboxylate], for which the negative-log IC50 (pIC50) is greater than 7.00.
As to `CNC(=O)c1csc2c(C(F)(F)F)cc(O[C@H]3CCN(C(=O)NCC4CC4)C3)nc12` [Example 594, (S)-5-((1-((Cyclopropylmethyl)carbamoyl)pyrrolidin-3-yl)oxy)-N-methyl-7-(trifluoromethyl)thieno[3,2-b]pyridine-3-carboxamide], the pIC50 was 6.00 to 7.00.
On the same count and under the same terms, with `CNC(=O)c1csc2c(C(F)(F)F)c(C)c(N3CCN(CC(=O)NC(C)C)CC3)nc12` [Example 47, 5-(4-(2-(Isopropylamino)-2-oxoethyl)piperazin-1-yl)-N,6-dimethyl-7-(trifluoromethyl)thieno[3,2-b]pyridine-3-carboxamide] the figure was 6.00 to 7.00; with `CNC(=O)c1csc2c(C(F)(F)F)cc(O[C@@H]3CCN(C(=O)OCCOC(F)(F)F)[C@H](C)C3)nc12` (racemic) [Example 371, (+/−)-cis-2-(Trifluoromethoxy)ethyl-2-methyl-4-((3-(methylcarbamoyl)-7-(trifluoromethyl)thieno[3,2-b]pyridin-5-yl)oxy)piperidine-1-carboxylate], greater than 7.00.
In the case of `CNC(=O)c1csc2c(C(F)(F)F)c(Cl)c(N3CCC(OC(=O)NCC4CC4)CC3)nc12` [Example 638, [1-[6-Chloro-3-(methylcarbamoyl)-7-(trifluoromethyl)thieno[3,2-b]pyridin-5-yl]-4-piperidyl] N-(cyclopropylmethyl)carbamate], the pIC50 was greater than 7.00.
Regarding `CNC(=O)c1csc2c(C(F)(F)F)cc(N3CCC(OC(=O)N4CC(OC(F)F)C4)CC3)nc12` [Example 87, 1-(3-(Methylcarbamoyl)-7-(trifluoromethyl)thieno[3,2-b]pyridin-5-yl)piperidin-4-yl 3-(difluoromethoxy)azetidine-1-carboxylate], the pIC50 was greater than 7.00.
Turning to `CNC(=O)c1csc2c(C(F)(F)F)c(C)c(O[C@@H]3CCN(C(=O)OC(C)(C)C)C[C@@H]3F)nc12` (racemic) [Example 387, (+/−)-tert-Butyl cis-3-fluoro-4-((6-methyl-3-(methylcarbamoyl)-7-(trifluoromethyl)thieno[3,2-b]pyridin-5-yl)oxy)piperidine-1-carboxylate], the negative-log IC50 (pIC50) is greater than 7.00.
As to `CNC(=O)c1csc2c(C(F)(F)F)cc(O[C@H]3CCN(C(=O)OCC4CC4)C3)nc12` [Example 595, Cyclopropylmethyl (S)-3-((3-(methylcarbamoyl)-7-(trifluoromethyl)thieno[3,2-b]pyridin-5-yl)oxy)pyrrolidine-1-carboxylate], the pIC50 was greater than 7.00.
As for `CC(C)NC(=O)c1csc2c(C(F)(F)F)cc(N3CCC(NC(=O)OC(C)(C)C)C3)nc12` (centres unmarked) [Example 642, tert-Butyl N-[1-[3-(isopropylcarbamoyl)-7-(trifluoromethyl)thieno[3,2-b]pyridin-5-yl]pyrrolidin-3-yl]carbamate], the pIC50 was 6.00 to 7.00.
On to `CNC(=O)c1csc2c(C(F)(F)F)cc(O[C@H]3C[C@@H](OC(=O)N[C@@H](C)COC(F)(F)F)C3)nc12` (racemic) [Example 833, (+/−)-cis-(1S,3R)-3-((3-(Methylcarbamoyl)-7-(trifluoromethyl)thieno[3,2-b]pyridin-5-yl)oxy)cyclobutyl ((S)-1-(trifluoromethoxy)propan-2-yl)carbamate], for which the pIC50 is greater than 7.00.
`CNC(=O)c1csc2c(C(F)(F)F)cc(O[C@@H]3CCN(C(=O)OC(C)(C)C)[C@H](C)C3)nc12` (racemic) [Example 370, (+/−)-tert-Butyl cis-2-methyl-4-((3-(methylcarbamoyl)-7-(trifluoromethyl)thieno[3,2-b]pyridin-5-yl)oxy)piperidine-1-carboxylate]: the pIC50 was greater than 7.00.
With `CNC(=O)c1c(OC)sc2c(C(F)(F)F)c(Cl)c(N3CCN(CC(=O)NC(C)C)CC3)nc12` [Example 637, 6-Chloro-5-[4-[2-(isopropylamino)-2-oxo-ethyl]piperazin-1-yl]-2-methoxy-N-methyl-7-(trifluoromethyl)thieno[3,2-b]pyridine-3-carboxamide], the pIC50 was 6.00 to 7.00.
With `CNC(=O)c1csc2c(C(F)(F)F)nc(N3CCC(OC(=O)N[C@@H](C)C4CC4)CC3)nc12` [Example 187, 1-(7-(Methylcarbamoyl)-4-(trifluoromethyl)thieno[3,2-d]pyrimidin-2-yl)piperidin-4-yl-(S)-(1-cyclopropylethyl)carbamate], the negative logarithm of the IC50 (pIC50) is greater than 7.00.
Turning to `CCNC(=O)c1csc2c(C3CC3)cc(N3CCN(CC(=O)NC(C)C)CC3)nc12` [Example 420, 7-Cyclopropyl-N-ethyl-5-(4-(2-(isopropylamino)-2-oxoethyl)piperazin-1-yl)thieno[3,2-b]pyridine-3-carboxamide], the pIC50 was less than 6.00.
For the molecule `CNC(=O)c1csc2c(C(F)(F)F)cc(OC3CC4COCC(C3)N4C(=O)OC(C)(C)C)nc12` (racemic) [Example 628, tert-Butyl (+/−)-endo7-((3-(methylcarbamoyl)-7-(trifluoromethyl)thieno[3,2-b]pyridin-5-yl)oxy)-3-oxa-9-azabicyclo[3.3.1]nonane-9-carboxylate], the pIC50 is 6.00 to 7.00.
On to `CNC(=O)c1csc2c(C(F)(F)F)cc(N3CCC(OC(=O)NCC4CC4)CC3)nc12.Cl` [Example 669, [1-[3-(Methylcarbamoyl)-7-(trifluoromethyl)thieno[3,2-b]pyridin-5-yl]-4-piperidyl] N-(cyclopropylmethyl)carbamate hydrochloride], for which the “Potency range (IC50, In-vitro SFT)” value is listed as “A (A < 0.1 uM)”.
For the molecule `CNC(=O)c1csc2c(C(F)(F)F)c(C)c(O[C@H]3C[C@@H](NC(=O)O[C@@H](C)C4CC4)C3)nc12` [Example 220, (S)-1-Cyclopropylethyl ((1S,3R)-3-((6-methyl-3-(methylcarbamoyl)-7 (trifluoromethyl)thieno[3,2-b]pyridin-5-yl)oxy)cyclobutyl)carbamate], the negative logarithm of the IC50 (pIC50) is greater than 7.00.
On to `CNC(=O)c1csc2c(C(F)(F)F)cc(N3CCC(NC(=O)OCCOC(F)(F)F)CC3)nc12` [Example 520, 2-(Trifluoromethoxy)ethyl (1-(3-(methylcarbamoyl)-7-(trifluoromethyl)thieno[3,2-b]pyridin-5-yl)piperidin-4-yl)carbamate], for which the negative-log IC50 (pIC50) is greater than 7.00.
As to `CNC(=O)c1csc2c(C(F)(F)F)cc(C3CCN(C(=O)O[C@@H](C)C4CC4)CC3)nc12` [Example 566, (S)-1-Cyclopropylethyl 4-(3-(methylcarbamoyl)-7-(trifluoromethyl)thieno[3,2-b]pyridin-5-yl)piperidine-1-carboxylate], the pIC50 is greater than 7.00.
